Assay results published in ChEMBL document CHEMBL3797178, “Synthesis, antimycobacterial and antibacterial activity of 1-(6-amino-3,5-difluoropyridin-2-yl)fluoroquinolone derivatives containing an oxime functional moiety” (2016).
In brackets after ≈: the same amount, converted by molar mass.

Columns and labels:
Type in all cases: functional
[1] = system: Staphylococcus epidermidis; test: Antibacterial activity against methicillin-resistant Staphylococcus epidermidis 14-39 after 18 to 24 hrs by CLSI M100-S11 method
Pseudomonas aeruginosa [2] = test: Antibacterial activity against Pseudomonas aeruginosa ATCC 27853 after 18 to 24 hrs by CLSI M100-S11 method
Escherichia coli [3] = test: Antibacterial activity against extended-spectrum beta-lactamase-producing Escherichia coli 14-2 after 18 to 24 hrs by CLSI M100-S11 method
[4] = system: Staphylococcus epidermidis; test: Antibacterial activity against methicillin-sensitive Staphylococcus epidermidis 14-6 after 18 to 24 hrs by CLSI M100-S11 method
Enterococcus faecalis [5] = test: Antibacterial activity against Enterococcus faecalis 14-2 after 18 to 24 hrs by CLSI M100-S11 method
Klebsiella pneumoniae [6] = test: Antibacterial activity against Klebsiella pneumoniae 14-2 after 18 to 24 hrs by CLSI M100-S11 method
Escherichia coli [7] = test: Antibacterial activity against Escherichia coli 14-2 after 18 to 24 hrs by CLSI M100-S11 method
Klebsiella pneumoniae [8] = test: Antibacterial activity against Klebsiella pneumoniae 14-4 after 18 to 24 hrs by CLSI M100-S11 method
Pseudomonas aeruginosa [9] = test: Antibacterial activity against Pseudomonas aeruginosa 14-15 after 18 to 24 hrs by CLSI M100-S11 method
Staphylococcus aureus [10] = test: Antibacterial activity against methicillin-sensitive Staphylococcus aureus 14-3 after 18 to 24 hrs by CLSI M100-S11 method
Escherichia coli [11] = test: Antibacterial activity against Escherichia coli ATCC 25922 after 18 to 24 hrs by CLSI M100-S11 method
[12] = system: Staphylococcus epidermidis; test: Antibacterial activity against methicillin-sensitive Staphylococcus epidermidis 14-4 after 18 to 24 hrs by CLSI M100-S11 method
Klebsiella pneumoniae [13] = test: Antibacterial activity against extended-spectrum beta-lactamase-producing Klebsiella pneumoniae 14-17 after 18 to 24 hrs by CLSI M100-S11 method
Escherichia coli [14] = test: Antibacterial activity against extended-spectrum beta-lactamase-producing Escherichia coli 14-1 after 18 to 24 hrs by CLSI M100-S11 method
Staphylococcus aureus [15] = test: Antibacterial activity against methicillin-sensitive Staphylococcus aureus 14-2 after 18 to 24 hrs by CLSI M100-S11 method
Staphylococcus aureus [16] = test: Antibacterial activity against methicillin-resistant Staphylococcus aureus 14-5 after 18 to 24 hrs by CLSI M100-S11 method
Enterococcus faecium [17] = test: Antibacterial activity against Enterococcus faecium 14-2 after 18 to 24 hrs by CLSI M100-S11 method
Klebsiella pneumoniae [18] = test: Antibacterial activity against extended-spectrum beta-lactamase-producing Klebsiella pneumoniae 14-18 after 18 to 24 hrs by CLSI M100-S11 method
Staphylococcus aureus [19] = test: Antibacterial activity against methicillin-resistant Staphylococcus aureus 14-4 after 18 to 24 hrs by CLSI M100-S11 method
Klebsiella pneumoniae [20] = test: Antibacterial activity against extended-spectrum beta-lactamase-producing Klebsiella pneumoniae 14-19 after 18 to 24 hrs by CLSI M100-S11 method
Enterococcus faecalis [21] = test: Antibacterial activity against Enterococcus faecalis 14-3 after 18 to 24 hrs by CLSI M100-S11 method
[22] = system: Staphylococcus epidermidis; test: Antibacterial activity against methicillin-resistant Staphylococcus epidermidis 14-37 after 18 to 24 hrs by CLSI M100-S11 method
Enterococcus faecalis [23] = test: Antibacterial activity against Enterococcus faecalis 14-1 after 18 to 24 hrs by CLSI M100-S11 method
Pseudomonas aeruginosa [24] = test: Antibacterial activity against Pseudomonas aeruginosa 14-9 after 18 to 24 hrs by CLSI M100-S11 method
Pseudomonas aeruginosa [25] = test: Antibacterial activity against Pseudomonas aeruginosa 14-19 after 18 to 24 hrs by CLSI M100-S11 method
Staphylococcus aureus [26] = test: Antibacterial activity against Staphylococcus aureus CMCC 26003 after 18 to 24 hrs by CLSI M100-S11 method
Streptococcus pneumoniae = test: Antibacterial activity against Streptococcus pneumoniae ATCC 19615 after 18 to 24 hrs by CLSI M100-S11 method
Staphylococcus aureus [27] = test: Antibacterial activity against methicillin-sensitive Staphylococcus aureus 14-4 after 18 to 24 hrs by CLSI M100-S11 method
[28] = system: Staphylococcus epidermidis; test: Antibacterial activity against methicillin-resistant Staphylococcus epidermidis 14-22 after 18 to 24 hrs by CLSI M100-S11 method
Pseudomonas aeruginosa [29] = test: Antibacterial activity against Pseudomonas aeruginosa 14-16 after 18 to 24 hrs by CLSI M100-S11 method
[30] = system: Staphylococcus epidermidis; test: Antibacterial activity against methicillin-sensitive Staphylococcus epidermidis 14-2 after 18 to 24 hrs by CLSI M100-S11 method
[31] = system: Mycobacterium tuberculosis; test: Antimycobacterial activity against Mycobacterium tuberculosis H37Rv ATCC 27294 after 3 days by microplate Alamar Blue assay; conditions: H37Rv ATCC 27294, 72 h
Pseudomonas aeruginosa [32] = test: Antibacterial activity against Pseudomonas aeruginosa 14-14 after 18 to 24 hrs by CLSI M100-S11 method
Klebsiella pneumoniae [33] = test: Antibacterial activity against Klebsiella pneumoniae 14-1 after 18 to 24 hrs by CLSI M100-S11 method
Klebsiella pneumoniae [34] = test: Antibacterial activity against Klebsiella pneumoniae 14-3 after 18 to 24 hrs by CLSI M100-S11 method
Enterococcus faecium [35] = test: Antibacterial activity against Enterococcus faecium 14-1 after 18 to 24 hrs by CLSI M100-S11 method
Escherichia coli [36] = test: Antibacterial activity against Escherichia coli 14-1 after 18 to 24 hrs by CLSI M100-S11 method

In the case of `CCO/N=C1\CN(c2nc3c(cc2F)c(=O)c(C(=O)O)cn3-c2nc(N)c(F)cc2F)CC1CN` (centres undefined), the MIC [1] is reported as 32 µg/mL (≈ 65.1 µM), the MIC (Pseudomonas aeruginosa [2]) is reported as 4 µg/mL (≈ 8.14 µM) and the MIC (Escherichia coli [3]) is reported as 128 µg/mL (≈ 260 µM). The MIC [4] was 32 µg/mL (≈ 65.1 µM), the MIC (Enterococcus faecalis [5]) was 16 µg/mL (≈ 32.6 µM) and the MIC (Klebsiella pneumoniae [6]) was 128 µg/mL (≈ 260 µM). It also gave an MIC (Escherichia coli [7]) of 64 µg/mL (≈ 130 µM), an MIC (Klebsiella pneumoniae [8]) of 128 µg/mL (≈ 260 µM) and an MIC (Pseudomonas aeruginosa [9]) of 16 µg/mL (≈ 32.6 µM). For the same compound, the MIC (Staphylococcus aureus [10]) was 0.5 µg/mL (≈ 1.02 µM), the MIC (Escherichia coli [11]) was 0.5 µg/mL (≈ 1.02 µM) and the MIC [12] was 32 µg/mL (≈ 65.1 µM). The MIC (Klebsiella pneumoniae [13]) was 64 µg/mL (≈ 130 µM), the MIC (Escherichia coli [14]) was 8 µg/mL (≈ 16.3 µM) and the MIC (Staphylococcus aureus [15]) was 0.25 µg/mL (≈ 0.509 µM). It also gave an MIC (Staphylococcus aureus [16]) of 64 µg/mL (≈ 130 µM), an MIC (Enterococcus faecium [17]) of 8 µg/mL (≈ 16.3 µM) and an MIC (Klebsiella pneumoniae [18]) of 32 µg/mL (≈ 65.1 µM). It also gave an MIC (Staphylococcus aureus [19]) of 64 µg/mL (≈ 130 µM), an MIC (Klebsiella pneumoniae [20]) of 128 µg/mL (≈ 260 µM) and an MIC (Enterococcus faecalis [21]) of 32 µg/mL (≈ 65.1 µM). The MIC [22] was 64 µg/mL (≈ 130 µM), the MIC (Enterococcus faecalis [23]) was 16 µg/mL (≈ 32.6 µM) and the MIC (Pseudomonas aeruginosa [24]) was 16 µg/mL (≈ 32.6 µM). It also gave an MIC (Pseudomonas aeruginosa [25]) of 32 µg/mL (≈ 65.1 µM), an MIC (Staphylococcus aureus [26]) of 0.06 µg/mL (≈ 0.122 µM) and an MIC (Streptococcus pneumoniae) of 16 µg/mL (≈ 32.6 µM). The MIC (Staphylococcus aureus [27]) was 0.5 µg/mL (≈ 1.02 µM), the MIC [28] was 32 µg/mL (≈ 65.1 µM) and the MIC (Pseudomonas aeruginosa [29]) was 16 µg/mL (≈ 32.6 µM). For the same compound, the MIC [30] was 64 µg/mL (≈ 130 µM), the MIC [31] was 6.56 µg/mL (≈ 13.3 µM) and the MIC (Pseudomonas aeruginosa [32]) was 16 µg/mL (≈ 32.6 µM). The MIC (Klebsiella pneumoniae [33]) was 64 µg/mL (≈ 130 µM), the MIC (Klebsiella pneumoniae [34]) was 128 µg/mL (≈ 260 µM) and the MIC (Enterococcus faecium [35]) was 128 µg/mL (≈ 260 µM). For the same compound, the MIC (Escherichia coli [36]) was 64 µg/mL (≈ 130 µM).
In the case of `CO/N=C1\CN(c2nc3c(cc2F)c(=O)c(C(=O)O)cn3-c2nc(N)c(F)cc2F)CC1CN` (centres undefined), the MIC [1] is reported as 64 µg/mL (≈ 134 µM), the MIC (Pseudomonas aeruginosa [2]) is reported as 4 µg/mL (≈ 8.38 µM) and the MIC (Escherichia coli [3]) is reported as > 128 µg/mL. For the same compound, the MIC [4] was 64 µg/mL (≈ 134 µM), the MIC (Enterococcus faecalis [5]) was 16 µg/mL (≈ 33.5 µM) and the MIC (Klebsiella pneumoniae [6]) was > 128 µg/mL. The MIC (Escherichia coli [7]) was 128 µg/mL (≈ 268 µM), the MIC (Klebsiella pneumoniae [8]) was > 128 µg/mL and the MIC (Pseudomonas aeruginosa [9]) was 32 µg/mL (≈ 67 µM). For the same compound, the MIC (Staphylococcus aureus [10]) was 0.5 µg/mL (≈ 1.05 µM), the MIC (Escherichia coli [11]) was 2 µg/mL (≈ 4.19 µM) and the MIC [12] was 64 µg/mL (≈ 134 µM). It also gave an MIC (Klebsiella pneumoniae [13]) of 128 µg/mL (≈ 268 µM), an MIC (Escherichia coli [14]) of 16 µg/mL (≈ 33.5 µM) and an MIC (Staphylococcus aureus [15]) of 0.5 µg/mL (≈ 1.05 µM). It also gave an MIC (Staphylococcus aureus [16]) of 64 µg/mL (≈ 134 µM), an MIC (Enterococcus faecium [17]) of 64 µg/mL (≈ 134 µM) and an MIC (Klebsiella pneumoniae [18]) of 32 µg/mL (≈ 67 µM). For the same compound, the MIC (Staphylococcus aureus [19]) was > 128 µg/mL, the MIC (Klebsiella pneumoniae [20]) was > 128 µg/mL and the MIC (Enterococcus faecalis [21]) was 32 µg/mL (≈ 67 µM). For the same compound, the MIC [22] was 128 µg/mL (≈ 268 µM), the MIC (Enterococcus faecalis [23]) was 16 µg/mL (≈ 33.5 µM) and the MIC (Pseudomonas aeruginosa [24]) was 16 µg/mL (≈ 33.5 µM). It also gave an MIC (Pseudomonas aeruginosa [25]) of 64 µg/mL (≈ 134 µM), an MIC (Staphylococcus aureus [26]) of 0.5 µg/mL (≈ 1.05 µM) and an MIC (Streptococcus pneumoniae) of 64 µg/mL (≈ 134 µM). The MIC (Staphylococcus aureus [27]) was 0.25 µg/mL (≈ 0.524 µM), the MIC [28] was 64 µg/mL (≈ 134 µM) and the MIC (Pseudomonas aeruginosa [29]) was 32 µg/mL (≈ 67 µM). The MIC [30] was > 128 µg/mL, the MIC [31] was 7.13 µg/mL (≈ 14.9 µM) and the MIC (Pseudomonas aeruginosa [32]) was 32 µg/mL (≈ 67 µM). For the same compound, the MIC (Klebsiella pneumoniae [33]) was > 128 µg/mL, the MIC (Klebsiella pneumoniae [34]) was > 128 µg/mL and the MIC (Enterococcus faecium [35]) was > 128 µg/mL. For the same compound, the MIC (Escherichia coli [36]) was 128 µg/mL (≈ 268 µM).
